Experiments:
[1] = test system: Bacillus cereus ATCC 10876; assay: agar diffusion test with impregnated cellulose discs; type: cell-based; details: incl. 6 mm disc
[2] = test system: Penicillium digitatum; assay: reduction of spores in suspension in absence or presence of organic matter; type: cell-based; details: PTS 750 ppm 1 min.
Description: (§1) In addition, under the real conditions of a disinfecting bath for boxes, crates and containers, as well as for the disinfection of rooms and work surfaces, organic material (soil residue, rotten fruit, leaves etc.) is generally present, which can reduce the action of the disinfectant agent. Therefore, the effectiveness of PTS and PTSO has also been assessed in the presence of organic matter on two pathogens that cause post-harvest rot of stone fruit (Penicillium expansum) and citrus fruit (Penicillium digitatum).

[3] = test system: Penicillium expansum; assay: as above; type: cell-based; details: PTS 750 ppm 1 min.
Description: as §1

[4] = test system: fungal population; assay: disinfection by drencher of naturally contaminated containers of a citrus fruit processing plant; details: PTS 750 mm
[5] = test system: Rhizopus stolonifer; assay: disinfection of containers stored inside the rooms by fogging
[6] = test system: Fungi mixture (P. expansum, P. italicum, P. digitatum and A. Alternata); assay: as above
[7] = test system: Escherichia coli ATCC 25922; assay: agar diffusion test with impregnated cellulose discs; type: cell-based; details: incl. 6 mm disc
[8] = test system: Bacillus subtilis ATCC 6633; assay: as above; type: cell-based; details: incl. 6 mm disc
[9] = test system: Listeria innocua CECT 4030; assay: as above; type: cell-based; details: incl. 6 mm disc
[10] = test system: Ralstonia solanacearum Strain GM1000; type: cell-based; details: in vitro tests
[11] = test system: mixture of fungi (P. expansum, P. italicum, P. digitatum and A. alternata); assay: disinfection of rooms by means of fogging
[12] = test system: Fusarium spp.; assay: field tests on affected asparagus, Fusarium spp. in roots; type: in vivo; details: 60 days after application, compared to untreated control
Protocol: The treatment doses used were 250, 500 and 1000 ppm of both active principles (PT and PTSO), and the initial incidence of the pathogen was compared with its presence 60 days after its application.
To analyze the growth of the crops infected by Fusarium spp. after the treatments, root and soil samples were taken and tests were performed in the laboratory to investigate the incidence of the pathogen in the roots and soil. The cultivation media used were potato dextrose agar and rose bengal agar (to prevent the invasive character of the Mucoralean fungi).
The soil analysis was conducted by sequential dilutions of the soils in physiological serum with a subsequent sowing in the above mentioned media. The analysis of the roots was performed after dissection of the infected tissues, which were deposited in triplicate on filter paper located above both media, and their evolution over time was studied.
The data are expressed as a percentage of elimination and reduction as a function of the treatment dose compared to the untreated control samples.

[13] = test system: Enteroccus faecalis ATCC 29212; assay: agar diffusion test with impregnated cellulose discs; type: cell-based; details: incl. 6 mm disc
[14] = test system: Fungi mixture (P. expansum, P. italicum, P. digitatum and A. Alternata); assay: disinfection of artificially contaminated containers by drencher; details: drencher 30 seconds
Protocol: A test of the disinfection of containers (fruit boxes and crates) was conducted in which a level of artificial contamination was created by means of controlled inoculation, with the objective of determining optimum doses of application to achieve a satisfactory disinfection. First the containers (made of wood and plastic) were disinfected with sodium hypochlorite, and they were then artificially contaminated via controlled inoculations with different fungi characteristic of the fruit and vegetable processing sector. For this purpose, isolated wild strains were used which, after sporulation, were collected to create a suspension of mixed spores of various fungi (Penicillium expansum, Penicillium italicum, Penicillium digitarum and Alternario alternata) and, separately in simultaneous tests (as a result of its higher rate of growth and its invasive character), a suspension of Rhizopus stolonifer. […] After this fogging, the containers were allowed to dry. The containers were then sampled to determine the level of initial contamination achieved (by means of contact plates containing Rose Bengal agar). The containers were then treated in a pilot line […]. The hold time of the containers under the showers was 30 seconds, and the test doses were 750 ppm and 1050 ppm for PTS and 2000 ppm and 5000 ppm in the case of PTSO. After exiting the showers, the treated containers were allowed to dry, and were again sampled using contact plates with Rose Bengal agar to determine the final level of contamination. The sampling unit was 3 containers and 3 plates per repetition.

[15] = test system: Penicillium solitum Wild strain; assay: agar diffusion test with impregnated cellulose discs; type: cell-based; details: incl. 6 mm disc
[16] = organic matter Absence, 0 hours
[17] = organic matter Absence, 2 hours
[18] = organic matter Absence, 3 hours
[19] = organic matter Presence, 0 hours
[20] = organic matter Presence, 1 hour
[21] = organic matter Presence, 2 hours
[22] = organic matter Presence, 3 hours

CCCS[S+]([O-])CCC (stereo not drawn) [PTS, Propyl Propyl Thiosulfinate]
diameter of the microbial inhibition halo ([1]; 60 ppm): 15 mm | diameter of the microbial inhibition halo ([1]; 125 ppm): 20 mm | diameter of the microbial inhibition halo ([1]; 250 ppm): 25 mm | diameter of the microbial inhibition halo ([1]; 500 ppm): 27 mm | diameter of the microbial inhibition halo ([1]; 1000 ppm): 35 mm | Reduction of the population (%) [2, 16]: 100% | Reduction of the population (%) ([2]; organic matter Absence, 1 hour): 100% | Reduction of the population (%) [2, 17]: 100% | Reduction of the population (%) [2, 18]: 100% | Reduction of the population (%) [2, 19]: 100% | Reduction of the population (%) [2, 20]: 100% | Reduction of the population (%) [2, 21]: 100% | Reduction of the population (%) [2, 22]: 100% | Reduction of the population (%) [3, 16]: 68% | Reduction of the population (%) ([3]; organic matter Absence, 1 hour): 82% | Reduction of the population (%) [3, 17]: 45% | Reduction of the population (%) [3, 18]: 68% | Reduction of the population (%) [3, 19]: 73% | Reduction of the population (%) [3, 20]: 41% | Reduction of the population (%) [3, 21]: 36% | Reduction of the population (%) [3, 22]: 18% | Reduction of the fungal population (%) ([4]; Bottom of the pallet, Beginning of bath): 87% | Reduction of the fungal population (%) ([4]; Bottom of the pallet, End of bath): 79% | Reduction of the fungal population (%) ([4]; Side of the pallet, Beginning of bath): 97% | Reduction of the fungal population (%) ([4]; Side of the pallet, End of bath): 100% | Reduction of the population (%) ([5]; 750 ppm, Plastic container): 36% | Reduction of the population (%) ([5]; 1050 ppm, Plastic container): 27% | Reduction of the population (%) ([5]; 1050 ppm, Wood container): 26% | Reduction of the population (%) ([6]; 750 ppm, Plastic container): 97% | Reduction of the population (%) ([6]; 750 ppm, Wood container): 97% | Reduction of the population (%) ([6]; 1050 ppm, Plastic container): 98% | Reduction of the population (%) ([6]; 1050 ppm, Wood container): 97% | diameter of the microbial inhibition halo ([7]; 60 ppm): 12 mm | diameter of the microbial inhibition halo ([7]; 125 ppm): 17 mm | diameter of the microbial inhibition halo ([7]; 250 ppm): 24 mm | diameter of the microbial inhibition halo ([7]; 500 ppm): 25 mm | diameter of the microbial inhibition halo ([7]; 1000 ppm): 27 mm | diameter of the microbial inhibition halo ([8]; 60 ppm): 32 mm | diameter of the microbial inhibition halo ([8]; 125 ppm): 35 mm | diameter of the microbial inhibition halo ([8]; 250 ppm): 40 mm | diameter of the microbial inhibition halo ([8]; 500 ppm): 55 mm | diameter of the microbial inhibition halo ([8]; 1000 ppm): 55 mm | diameter of the microbial inhibition halo ([9]; 60 ppm): 13 mm | diameter of the microbial inhibition halo ([9]; 125 ppm): 23 mm | diameter of the microbial inhibition halo ([9]; 250 ppm): 32 mm | diameter of the microbial inhibition halo ([9]; 500 ppm): 37 mm | diameter of the microbial inhibition halo ([9]; 1000 ppm): 40 mm | effectiveness of the application (in words) [10]: highly effective | Reduction in the population of the mixture of fungi expressed in % ([11]; 750 ppm, Environment): 89% | Reduction in the population of the mixture of fungi expressed in % ([11]; 750 ppm, Walls): 96% | Reduction in the population of the mixture of fungi expressed in % ([11]; 1050 ppm, Environment): 100% | Reduction in the population of the mixture of fungi expressed in % ([11]; 1050 ppm, Walls): 97% | % Reduction ([12]; 250 ppm): 60% | % elimination ([12]; 250 ppm): 0% | % Reduction ([12]; 500 ppm): 14% | % elimination ([12]; 500 ppm): 57% | % Reduction ([12]; 1000 ppm): 13% | % elimination ([12]; 1000 ppm): 58% | diameter of the microbial inhibition halo ([13]; 60 ppm): 15 mm | diameter of the microbial inhibition halo ([13]; 125 ppm): 22 mm | diameter of the microbial inhibition halo ([13]; 250 ppm): 26 mm | diameter of the microbial inhibition halo ([13]; 500 ppm): 30 mm | diameter of the microbial inhibition halo ([13]; 1000 ppm): 30 mm | Reduction of the population (%) ([14]; 750 ppm, Plastic container): 81% | Reduction of the population (%) ([14]; 750 ppm, Wood container): 85% | Reduction of the population (%) ([14]; 1050 ppm, Plastic container): 87% | Reduction of the population (%) ([14]; 1050 ppm, Wood container): 85% | diameter of the microbial inhibition halo ([15]; 60 ppm): 0 mm | diameter of the microbial inhibition halo ([15]; 125 ppm): 11 mm | diameter of the microbial inhibition halo ([15]; 250 ppm): 16 mm | diameter of the microbial inhibition halo ([15]; 500 ppm): 28 mm | diameter of the microbial inhibition halo ([15]; 1000 ppm): 35 mm
